Test results: US5219884A, “Immunosuppressant” (Taito Co., Ltd., priority 1990, dated 1993)
Like-named read-outs stand apart in the source and are kept apart here.

Legend:
[1] = system: IL2-dependent mouse cell line CTLL-2; assay: suppression of IL-2 induced 3H-thymidine incorporation of CTLL-2; assay type: cell-based; settings: 72 hrs, second run (control 30168 cpm)
Description: IL2-dependent mouse cell line CTLL-2 cells were suspended in the RPMI1640 culture medium supplemented with 30% FCS to a concentration of 2×10^5 cells/ml. The suspension (50 μl) and 50 μl of concanavalin A-stimulated rat spleen cell culture supernatants containing IL2 were added to each well of 96-well microculture plates in which 100 μl of the test substance had been placed. After culturing at 37° C. in an atmosphere of 5% carbon dioxide for 20, 44, or 68 hours, 0.5 μCi/well of ^3 H-thymidine was added, and cultured for 4 hours under the same conditions. After termination of the culture, the cells were harvested by a cell harvester, and the radioactivity incorporated into the cells was measured by a liquid scintillation counter.

[2] = cytotoxicity to mouse L929 cells; assay type: cell-based; settings: mouse, l929 cells, read-out: Suppression
Description: (§1) Cytotoxicity to mouse L929 cells was assayed as follows:
(§2) L929 cells were suspended to the concentration of 1.5×10^5 cells/ml in the F12 culture medium supplemented with 10% FCS. One hundred μl of the suspension was added to each well of 96-well microculture plates, and cultured at 37° C. in an atmosphere of 5% carbon dioxide for 24 hours, to which 100 μl of the test solution was added and cultured for further 48 hours. After the culture, 100 μl of the supernatant was removed and the absorbancy at 550 nm was measured in the same way as the colormetry using MTT in Experimental Example 1. The percent suppression was calculated by the following formula used as the index of cytotoxicity. [formula]

[3] = system: mouse L929 cells; assay: cytotoxicity to mouse L929 cells; assay type: cell-based; settings: 550 nm
Description: as §1, §2

[4] = in vitro; assay type: cell-based, human; settings: human, read-out: Suppression
Description: (§3) Cytotoxicity to human tumor cell lines was examined as follows:
(§4) Cells of human cell lines, K562, MOLT4, U937, HL60, KATOIII, KB, PC-6, PC-14 and CCRF-CEM were separately suspended to the concentration of 2×10^5 cells/ml in the RPMI1640 culture medium supplemented with 20% FCS. Fifty μl of this suspension was added to each well of 96-well microculture plates to which 50 μl of the test solution had been added. After culturing at 37° C. in an atmosphere of 5% carbon dioxide for 72 hours, the absorbancy at 550 nm was measured in the same way as the colorimetry using MTT in Experimental Example 1, and the percent suppression was calculated in the same manner as in Experimental Example 14, which was used as the index of cytotoxicity.

[5] = system: CCRF-CEM; assay: in vitro; assay type: cell-based, human
Description: as §3, §4

[6] = system: HL60; assay: in vitro; assay type: cell-based, human
Description: as §3, §4

[7] = system: K562; assay: in vitro; assay type: cell-based, human
Description: as §3, §4

[8] = system: KB; assay: in vitro; assay type: cell-based, human
Description: as §3, §4

[9] = system: PC-14; assay: in vitro; assay type: cell-based, human
Description: as §3, §4

[10] = system: U937; assay: in vitro; assay type: cell-based, human
Description: as §3, §4

[11] = cytotoxicity to tumor cell line MOLT4; assay type: cell-based, human; settings: human, molt4 cells, read-out: Suppression
Description: as §3, §4

[12] = system: MOLT4; assay: cytotoxicity to tumor cell line MOLT4; assay type: cell-based, human
Description: as §3, §4

With `CCCCCCC(O)CCCCCC/C=C/CC(O)C(O)C(N)(CO)C(=O)O` (stereo not shown) [Example 6] the 3H-thymidine uptake ([1]; 0.1 μg/ml) was 7237 cpm, the 3H-thymidine uptake ([1]; 1 μg/ml) was 1346 cpm and the inhibition at 0.1 µg/mL ([1]; Mus musculus, CTLL-2, 0.1 μg/ml, read-out: Suppression) was 76.2%. The inhibition at 1 µg/mL ([1]; Mus musculus, CTLL-2, 1 μg/ml) was 95.7%, the cytotoxicity at 48 h ([2]; 0.1 μg/ml) was 0% and the cytotoxicity at 48 h ([2]; 1 μg/ml) was 0%. The cytotoxicity at 48 h ([2]; 10 μg/ml) was 0%, the Absorbancy ([3]; 0.1 μg/ml) was 0.732 and the Absorbancy ([3]; 1 μg/ml) was 0.714. It also gave an Absorbancy ([3]; 10 μg/ml) of 0.733, a cytotoxicity at 72 h ([4]; ccrf-cem cells, 0.1 μg/ml) of 8% and a cytotoxicity at 72 h ([4]; ccrf-cem cells, 1.0 μg/ml) of 9.1%. For the same compound, the cytotoxicity at 72 h ([4]; ccrf-cem cells, 10.0 μg/ml) was 5.6%, the cytotoxicity at 72 h ([4]; hl60 cells, 0.1 μg/ml) was 16% and the cytotoxicity at 72 h ([4]; hl60 cells, 1.0 μg/ml) was 21%. It also gave a cytotoxicity at 72 h ([4]; hl60 cells, 10.0 μg/ml) of 17%, a cytotoxicity at 72 h ([4]; k562 cells, 0.1 μg/ml) of 1.6% and a cytotoxicity at 72 h ([4]; k562 cells, 1.0 μg/ml) of 4.5%. It also gave a cytotoxicity at 72 h ([4]; k562 cells, 10.0 μg/ml) of 3%, a cytotoxicity at 72 h ([4]; kb cells, 0.1 μg/ml) of 0% and a cytotoxicity at 72 h ([4]; kb cells, 1.0 μg/ml) of 0.3%. It also gave a cytotoxicity at 72 h ([4]; kb cells, 10.0 μg/ml) of 3.2%, a cytotoxicity at 72 h ([4]; pc-14 cells, 0.1 μg/ml) of 21.5% and a cytotoxicity at 72 h ([4]; pc-14 cells, 1.0 μg/ml) of 14.6%. It also gave a cytotoxicity at 72 h ([4]; pc-14 cells, 10.0 μg/ml) of 25.9%, a cytotoxicity at 72 h ([4]; u937 cells, 0.1 μg/ml) of 14% and a cytotoxicity at 72 h ([4]; u937 cells, 1.0 μg/ml) of 9.9%. The cytotoxicity at 72 h ([4]; u937 cells, 10.0 μg/ml) was 10.1%, the Absorbancy ([5]; 0.1 μg/ml) was 0.463 and the Absorbancy ([5]; 1.0 μg/ml) was 0.457. The Absorbancy ([5]; 10.0 μg/ml) was 0.475, the Absorbancy ([6]; 0.1 μg/ml) was 0.619 and the Absorbancy ([6]; 1.0 μg/ml) was 0.589. For the same compound, the Absorbancy ([6]; 10.0 μg/ml) was 0.627, the Absorbancy ([7]; 0.1 μg/ml) was 0.823 and the Absorbancy ([7]; 1.0 μg/ml) was 0.798. The Absorbancy ([7]; 10.0 μg/ml) was 0.811, the Absorbancy ([8]; 0.1 μg/ml) was 0.771 and the Absorbancy ([8]; 1.0 μg/ml) was 0.728. The Absorbancy ([8]; 10.0 μg/ml) was 0.707, the Absorbancy ([9]; 0.1 μg/ml) was 0.372 and the Absorbancy ([9]; 1.0 μg/ml) was 0.405. The Absorbancy ([9]; 10.0 μg/ml) was 0.351, the Absorbancy ([10]; 0.1 μg/ml) was 0.439 and the Absorbancy ([10]; 1.0 μg/ml) was 0.436. The Absorbancy ([10]; 10.0 μg/ml) was 0.435, the cytotoxicity at 72 h ([11]; 0.1 μg/ml) was 0.8% and the cytotoxicity at 72 h ([11]; 1.0 μg/ml) was 3.4%. It also gave a cytotoxicity at 72 h ([11]; 10.0 μg/ml) of 8.5%, an Absorbancy ([12]; 0.1 μg/ml) of 0.615 and an Absorbancy ([12]; 1.0 μg/ml) of 0.599. For the same compound, the Absorbancy ([12]; 10.0 μg/ml) was 0.567.
